Measured values: patent US20250049972A1, “METHOD OF DETECTING PROSTATE CANCER IN A HUMAN SUBJECT USING A Cu 64 PSMA I&T INJECTION” (Curium US LLC, priority 2023, published 2025)

System: prostate cancer lesions
Experiment: Phase 2 PET/CT imaging: CLR, CDR and per patient sensitivity/specificity vs Composite Reference Standard, 3 blinded readers
Format: in vivo, human
Settings: for Average Patient CDR: Average Correct Detection Rate (Standard Deviation) / Correct Localization Rate, region level / Number of Lesions Correctly Identified: IME Population; for Average Patient CDR: Average Correct Detection Rate (Standard Deviation) / Correct Localization Rate, region level: Phase 2; for Correct Localization Rate (region level CLR) / Number of Segments Correctly Identified / Pa Patient Specificity: Correct Patient Detection Rate / Pet Patient Sensitivity: Correct Patient Detection Rate: ITI Population; for Correct Localization Rate (region level CLR): 7-9 mCi; for Number of Lesions Correctly Identified: of 30 lesions truth; for Number of Segments Correctly Identified: of 30 segments truth
Protocol: A study was conducted to evaluate the use of Cu-64 PSMA I&T injection in imaging human patients with recurrent metastatic prostate cancer. The primary objectives were to determine efficacy on region and patient level and to assess safety for use with humans. The secondary objective was to assess image quality or AIQ using CLR and CDR. The study had two co-primary endpoints. First, region-level CLR defined as the percentage of regions containing at least one true PET positive lesion, with exactly localized correspondence between PET/CT imaging and the Composite Reference Standard regardless of any co-existent false positive findings, within the same region, out of all regions containing at least one PET positive finding. Second, patient-level CDR defined as the percentage of patients who have at least one true PET positive lesion, with exactly localized correspondence between PET imaging and the Composite Reference Standard, regardless of any co-existent false positive findings, out of all patients who are scanned. Both endpoints were measured for 1 and 4 hours post injection using PET scans. The study was powered to detect a CLR (detection rate) of greater than 60%. A sample size of 26 patients has an 80% power of detecting a true sensitivity of 85%. Key inclusion criteria included histologically proven prostate adenocarcinoma, prior radical prostatectomy, radiation therapy with curative intent, disease recurrence based on defined rise in PSA, and at least one extra prostatic site of disease suspected based on prior imaging or diagnosed by biopsy. Patients were administered 7-9 mCi Cu-64 PSMA I&T injection and then PET and/or CT images were acquired for all patients starting at approximately […] and 4 hours±30 minutes post Cu-64 PSMA I&T injection. Indeed, the images were collected from an approximate range of 45 minutes to 4 hours and 30 minutes post injection for all patients. The PET and CT images were interpreted independently by three readers blinded to all patient information. Each patient study was assessed and scored for the detection of prostate cancer. Specifically, each reader categorized images as “Disease” or “No Disease” based only on tumor uptake of Cu-64 PSMA-I&T in each of the five regions: (1) prostate bed or prostate gland, (2) lymph nodes (pelvic), (3) lymph nodes (extra pelvic), (4) bone, and (5) viscera/soft tissue. Analysis of the reads were used for determination of the CLR and CDR by comparison to the Composite Reference Standard. The Composite Reference Standard was defined as local histopathology obtained within 60 days before or following Cu-64 PSMA I&T PET/CT, or, if histopathology was not available, anatomical correlation of conventional image findings (e.g., targeted MRI or CT or any FDA-approved PET PSMA agent) obtained within 60 days before or following Cu-64 PSMA I&T PET/CT. A statistical threshold (with a lower bound of the 95% confidence interval) of 60% was prespecified for both CLR and CDR endpoints. The Phase 2 portion of the study included a separate group of 26 patients with biochemical recurrent PC. The dose for the Phase 2 portion of the study was 9 mCi with an acceptable range of 7 to 9 mCi. PET/CT images were acquired for all patients at 1 hour (±15 minutes) and 4 hours (±0.5 hours) post injection. The PET/CT images were interpreted independently by 3 readers blinded to all patient information. Each patient was assessed and scored for the detection of prostate cancer lesions. Specifically, each reader categorized images as “Disease” or “No Disease” based only on tumor uptake of copper Cu-64 PSMA I&T in each of 5 regions: (1) prostate bed or prostate gland, (2) lymph nodes (pelvic), (3) lymph nodes (extra pelvic), (4) bone, and (5) viscera/soft tissue. Analysis of the reads was used for determination of the CLR and CDR for 1 hour and 4 hours post-injection imaging of copper Cu-64 PSMA I&T PET/CT by comparison to a composite reference standard collected for each enrolled patient. […]

[1] = all 3 readers at both 1 and 4 hours

O=C(O)CC[C@H](NC(=O)N[C@@H](CCCCNC(=O)CCCCCCC(=O)NCCCC[C@@H](NC(=O)[C@@H](Cc1ccccc1)NC(=O)[C@@H](Cc1ccc(O)c(I)c1)NC(=O)CC[C@H](C(=O)O)N1CCN(CC(=O)O)CCN(CC(=O)O)CCN(CC(=O)O)CC1)C(=O)O)C(=O)O)C(=O)O [Cu-64 PSMA I&T, 64 Cu-(3S, 7S, 26R, 29R, 32R, 37R)-29-benzyl-32(4-hydroxy-3-iodobenzyl)-5, 13, 20, 28, 31, 34-hexaoxo-37-(4,7,10-tris(carboxymethyl)-1,4,7, 10-tetraazacyclododecan-1-yl)-4,6, 12, 21, 27, 30, 33-heptaazaheptatriacontane-1,3,7, 26, 37-pentacarboxylic acid, metal not drawn]
Average Patient CDR: Average Correct Detection Rate (Standard Deviation) (READER 1, 1 Hour Image): 84.21% (33.552%) | Correct Localization Rate, region level (READER 1, 1 Hour Image): 86.67% | Correct Localization Rate (region level CLR) (READER 1, 1 Hour Image): 86.67% | Number of Lesions Correctly Identified (READER 1, 1 Hour Image): 26 | Number of Segments Correctly Identified (READER 1, 1 Hour Image): 26 | Pa Patient Specificity: Correct Patient Detection Rate (READER 1, 1 Hour image): 100.00% | Pet Patient Sensitivity: Correct Patient Detection Rate (READER 1, 1 Hour image): 100.00% | Average Patient CDR: Average Correct Detection Rate (Standard Deviation) (READER 1, 4 Hour Image): 84.21% (33.552%) | Correct Localization Rate, region level (READER 1, 4 Hour Image): 86.67% | Pa Patient Specificity: Correct Patient Detection Rate (READER 1, 4 Hour Image): 100.00% | Pet Patient Sensitivity: Correct Patient Detection Rate (READER 1, 4 Hour Image): 100.00% | Correct Localization Rate (region level CLR) (READER 1, 4 Hour Image): 86.67% | Number of Lesions Correctly Identified (READER 1, 4 Hour Image): 26 | Number of Segments Correctly Identified (READER 1, 4 Hour Image): 26 | Average Patient CDR: Average Correct Detection Rate (Standard Deviation) (READER 2, 1 Hour Image): 77.19% (38.172%) | Correct Localization Rate, region level (READER 2, 1 Hour Image): 76.7% | Pa Patient Specificity: Correct Patient Detection Rate (READER 2, 1 Hour Image): 100.00% | Pet Patient Sensitivity: Correct Patient Detection Rate (READER 2, 1 Hour Image): 100.00% | Correct Localization Rate (region level CLR) (READER 2, 1 Hour Image): 76.67% | Number of Lesions Correctly Identified (READER 2, 1 Hour Image): 23 | Number of Segments Correctly Identified (READER 2, 1 Hour Image): 26 | Average Patient CDR: Average Correct Detection Rate (Standard Deviation) (READER 2, 4 Hour Image): 79.82% (37.916%) | Correct Localization Rate, region level (READER 2, 4 Hour Image): 80.00% | Pa Patient Specificity: Correct Patient Detection Rate (READER 2, 4 Hour Image): 100.00% | Pet Patient Sensitivity: Correct Patient Detection Rate (READER 2, 4 Hour Image): 100.00% | Correct Localization Rate (region level CLR) (READER 2, 4 Hour Image): 80.00% | Number of Lesions Correctly Identified (READER 2, 4 Hour Image): 24 | Number of Segments Correctly Identified (READER 2, 4 Hour Image): 24 | Average Patient CDR: Average Correct Detection Rate (Standard Deviation) (READER 3, 1 Hour Image): 80.70% (35.252%) | Correct Localization Rate, region level (READER 3, 1 Hour Image): 80.110% | Pa Patient Specificity: Correct Patient Detection Rate (READER 3, 1 Hour Image): 100.00% | Pet Patient Sensitivity: Correct Patient Detection Rate (READER 3, 1 Hour Image): 100.00% | Correct Localization Rate (region level CLR) (READER 3, 1 Hour Image): 80.00% | Number of Lesions Correctly Identified (READER 3, 1 Hour Image): 24 | Number of Segments Correctly Identified (READER 3, 1 Hour Image): 24 | Average Patient CDR: Average Correct Detection Rate (Standard Deviation) (READER 3, 4 Hour Image): 80.70% (35.252%) | Correct Localization Rate, region level (READER 3, 4 Hour Image): 80.00% | Pa Patient Specificity: Correct Patient Detection Rate (READER 3, 4 Hour Image): 100% | Pet Patient Sensitivity: Correct Patient Detection Rate (READER 3, 4 Hour Image): 100.00% | Correct Localization Rate (region level CLR) (READER 3, 4 Hour Image): 80.00% | Number of Lesions Correctly Identified (READER 3, 4 Hour Image): 24 | Number of Segments Correctly Identified (READER 3, 4 Hour Image): 24 | patient level CDR vs prespecified threshold [1]: > 60% | region level CLR vs prespecified threshold [1]: > 60% | correct patient detection rate (per patient sensitivity and specificity) (all patients, both 1 and 4 hour images): 100.00% | patients with no lesions detected on the PET/CT scan (of 26 patients): 7 | patients with positive lesions on the PET/CT scan (of 26 patients): 19
